{"source": "patent US7524504B1", "about": "“Anti-glycation hydrolysate of G. lucidum” (priority 2008, dated 2009)", "tested_on": "AGE-related proteins", "assay": "Inhibition of AGE-related proteins (HSA + glucose incubation, fluorescence)", "format": "biochemical, human", "conditions": "7 days of incubation", "procedure": "Inhibition of AGE-related proteins was assayed according to the following method. First, a reaction mixture was prepared by mixing 20 mg/ml of human serum albumin (HSA) in 200 mM phosphate buffer (pH 7.4) with 500 mM [90.08 mg/ml] of glucose and 0.02% [0.2 mg/ml] sodium azide (as a preservative). The reaction mixture was incubated at 37° C. for three weeks, during which time AGE-related proteins were produced via a Maillard-type reaction. After 7, 14 and 21 days, aliquots of the reaction mixture were passed through a molecular weight sieve (PD-10 column) and equilibrated in water to remove free glucose and Schiff base. […] The latter reaction generates fluorescent by-products with fluorescence proportional to the amount of accumulated AGE-related proteins as determined with a microplate fluorescence reader (Bio-Tek FL600) at an excitation wavelength of 360 nm and an emission wavelength of 440 nm.\nTo aliquots of the initial reaction mixture capable of producing AGE-related endproducts as described above were added varying concentrations of extract of G. lucidum according to the present invention (i.e., hydrolyzed with acid protease of R. miehei and thereafter rendered substantially devoid of acid protease activity). […] Fluorescence was measured after 7 days of incubation in the reaction mixture as set out above."}
{"smiles": "N=C(N)NN", "note": "[aminoguanidine, Aminoguanidine]", "values": [{"measurement": "Fluorescence (at 440 nm), normalized to 100", "setting": "100 mM + Positive Control", "value": 73}, {"measurement": "Fluorescence (at 440 nm), normalized to 100", "setting": "200 mM + Positive Control", "value": 45}]}
